What is called IC50 is the concentration that gives 50% inhibition.

This assay deals with T1, wild-type FLT3 receptor (Homo sapiens, UniProt P36888).
T1 construct: host or cells: Baf3 (murine B cell lymphoma line), stably transfected
T1 sequence (P36888 27-993): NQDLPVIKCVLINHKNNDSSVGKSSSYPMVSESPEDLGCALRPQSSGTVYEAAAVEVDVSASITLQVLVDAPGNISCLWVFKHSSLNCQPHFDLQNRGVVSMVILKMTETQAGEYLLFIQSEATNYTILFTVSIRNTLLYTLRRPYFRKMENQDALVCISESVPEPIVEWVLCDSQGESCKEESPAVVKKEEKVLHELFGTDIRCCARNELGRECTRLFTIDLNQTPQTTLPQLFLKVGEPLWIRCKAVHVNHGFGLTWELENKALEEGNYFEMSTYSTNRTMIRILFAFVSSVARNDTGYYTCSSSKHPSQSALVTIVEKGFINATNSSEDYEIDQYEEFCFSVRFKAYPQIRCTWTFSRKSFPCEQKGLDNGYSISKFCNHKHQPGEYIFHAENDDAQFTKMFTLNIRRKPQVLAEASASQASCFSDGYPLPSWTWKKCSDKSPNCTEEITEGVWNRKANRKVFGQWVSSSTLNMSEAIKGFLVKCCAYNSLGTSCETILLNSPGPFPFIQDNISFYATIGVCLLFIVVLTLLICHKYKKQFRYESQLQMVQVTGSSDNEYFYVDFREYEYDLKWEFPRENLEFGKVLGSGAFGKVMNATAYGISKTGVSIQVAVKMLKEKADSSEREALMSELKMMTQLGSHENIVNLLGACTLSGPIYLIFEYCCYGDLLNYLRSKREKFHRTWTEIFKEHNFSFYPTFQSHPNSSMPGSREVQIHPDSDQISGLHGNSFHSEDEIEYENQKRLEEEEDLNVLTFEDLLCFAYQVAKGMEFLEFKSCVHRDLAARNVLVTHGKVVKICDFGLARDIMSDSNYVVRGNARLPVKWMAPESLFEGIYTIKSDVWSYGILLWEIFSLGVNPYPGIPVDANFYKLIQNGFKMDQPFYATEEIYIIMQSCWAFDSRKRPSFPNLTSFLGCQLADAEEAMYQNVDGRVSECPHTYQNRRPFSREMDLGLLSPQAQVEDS
Briefly: Cell-based FLT3 receptor ELISA (FLT ligand-induced phosphorylation in Baf3 FLT3 cells). The following applies: 100 ng/mL Flt ligand, uncertainty ±20%. In a few lines:
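Receptor phosphotyrosine measured by sandwich ELISA (anti-FLT3 capture, HRP anti-pTyr, luminescence) in FLT3-transfected murine Baf3 cells given 1 h compound pretreatment and 10 min 100 ng/mL FLT ligand after overnight low-serum starvation; triplicates, IC50 from nonlinear regression.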
(In general: In an ELISA, binding on a coated surface is turned into a signal by an enzyme label.)
Compound `CC(C)Oc1ccc(NC(=O)N2CCC(c3ncnc4cc(OCCCOS(C)(=O)=O)ccc34)CC2)cc1` [Example 121, Methanesulfonic acid 3-{4-[1-(4-isopropoxy-phenylcarbamoyl)-piperidin-4-yl]-quinazolin-7-yloxy}-propyl ester] gave an IC50 of 117 nM.

As for `O=C1CCCN1CCOc1ccc2c(C3CCN(C(=O)Nc4ccc(N5CCCC5)cc4)CC3)ncnc2c1` [Example 74, 4-{7-[2-(2-Oxo-pyrrolidin-1-yl)-ethoxy]-quinazolin-4-yl}-piperidine-1-carboxylic acid (4-pyrrolidin-1-yl-phenyl)-amide], half-maximal inhibition (IC50) required 12 nM. In turn, `CC(C)Oc1ccc(NC(=O)N2CCC(c3ncnc4cc(OCCCN5CCCC5=O)ccc34)CC2)cc1` [Example 67, 4-{7-[3-(2-Oxo-pyrrolidin-1-yl)-propoxy]-quinazolin-4-yl}-piperidine-1-carboxylic acid (4-isopropoxy-phenyl)-amide] returned an IC50 of 3 nM.

`CCCCc1ccc(NC(=O)N2CCC(c3ncnc4cc(OC)c(OC)cc34)CC2)cc1` [Example 43, 4-(6,7-Dimethoxy-quinazolin-4-yl)-piperidine-1-carboxylic acid (4-butyl-phenyl)-amide] gave an IC50 of 59 nM. Next, `O=C1CCCN1CCCOc1ccc2c(C3CCN(C(=O)Nc4cnc(N5CCCC5)nc4)CC3)ncnc2c1` [Example 90, 4-{7-[3-(2-Oxo-pyrrolidin-1-yl)-propoxy]-quinazolin-4-yl}-piperidine-1-carboxylic acid (2-pyrrolidin-1-yl-pyrimidin-5-yl)-amide]: 279 nM; `COc1cc2ncnc(C3CCN(C(=O)Nc4ccc(C5CCN(C(=O)OC(C)(C)C)CC5)cc4)CC3)c2cc1OC` [Example 63, 4-(4-{[4-(6,7-Dimethoxy-quinazolin-4-yl)-piperidine-1-carbonyl]-amino}-phenyl)-piperidine-1-carboxylic acid tert-butyl ester]: 762 nM; `CN1CCC(COc2ccc3c(C4CCN(C(=O)Nc5ccc(N6CCOCC6)nc5)CC4)ncnc3c2)CC1` [Example 108, 4-[7-(1-Methyl-piperidin-4-ylmethoxy)-quinazolin-4-yl]-piperidine-1-carboxylic acid (6-morpholin-4-yl-pyridin-3-yl)-amide]: 53 nM. The compound `COc1cc2ncnc(C3CCN(CC(=O)Nc4ccc(C(C)C)cc4)CC3)c2cc1OC` [Example 9, 2-[4-(6,7-Dimethoxy-quinazolin-4-yl)-piperidin-1-yl]-N-(4-isopropyl-phenyl)-acetamide] had an IC50 of 7 nM. To `COc1cc2ncnc(C3CCN(C(=O)Nc4ccc(N5CCCC5=O)cc4)CC3)c2cc1OC` [Example 57, 4-(6,7-Dimethoxy-quinazolin-4-yl)-piperidine-1-carboxylic acid [4-(2-oxo-pyrrolidin-1-yl)-phenyl]-amide] belongs 381 nM. For the compound `CS(=O)(=O)NCCCOc1ccc2c(C3CCN(C(=O)Nc4ccc(OC5CCCC5)nc4)CC3)ncnc2c1` [Example 88, 4-[7-(3-Methanesulfonylamino-propoxy)-quinazolin-4-yl]-piperidine-1-carboxylic acid (6-cyclopentyloxy-pyridin-3-yl)-amide], the IC50 came to 30 nM. In the case of `O=C(Nc1ccc(N2CCCC2)nc1)N1CCC(c2ncnc3cc(OCCN4CCOC4=O)ccc23)CC1` [Example 92, 4-{7-[2-(2-Oxo-oxazolidin-3-yl)-ethoxy]-quinazolin-4-yl}-piperidine-1-carboxylic acid (6-pyrrolidin-1-yl-pyridin-3-yl)-amide], the half-maximal inhibitory concentration (IC50) turned out to be 12 nM. Next, `COc1cc2ncnc(C3CCN(C(=O)Nc4ccc(OC(C)C)nc4)CC3)c2cc1OC` [Example 56, 4-(6,7-Dimethoxy-quinazolin-4-yl)-piperidine-1-carboxylic acid (6-isopropoxy-pyridin-3-yl)-amide]: 10 nM; `CS(=O)(=O)NCCCOc1ccc2c(C3CCN(C(=O)Nc4ccc(N5CCOCC5)cc4)CC3)ncnc2c1` [Example 66, 4-[7-(3-Methanesulfonylamino-propoxy)-quinazolin-4-yl]-piperidine-1-carboxylic acid (4-morpholin-4-yl-phenyl)-amide]: 13 nM. Consider `CS(=O)(=O)OCCCOc1ccc2c(C3CCN(C(=O)Nc4ccc(N5CCOCC5)cc4)CC3)ncnc2c1` [Example 122, Methanesulfonic acid 3-{4-[1-(4-morpholin-4-yl-phenylcarbamoyl)-piperidin-4-yl]-quinazolin-7-yloxy}-propyl ester], for which the IC50 was found to be 110 nM. `O=C1CCCN1CCCOc1ccc2c(C3CCN(C(=O)Nc4ccc(N5CCOCC5)cc4)CC3)ncnc2c1` [Example 68, 4-{7-[3-(2-Oxo-pyrrolidin-1-yl)-propoxy]-quinazolin-4-yl}-piperidine-1-carboxylic acid (4-morpholin-4-yl-phenyl)-amide] registered an IC50 of 29 nM.

Compound `CC(C)c1ccc(NC(=O)N2CCC(c3ncnc4ccccc34)CC2)cc1` [Example 7, 4-Quinazolin-4-yl-piperidine-1-carboxylic acid (4-isopropyl-phenyl)-amide] showed an IC50 of 367 nM. Next, `CN1CCC(COc2ccc3c(C4CCN(C(=O)Nc5ccc(N6CCOCC6)cc5)CC4)ncnc3c2)CC1` [Example 94, 4-[7-(1-Methyl-piperidin-4-ylmethoxy)-quinazolin-4-yl]-piperidine-1-carboxylic acid (4-morpholin-4-yl-phenyl)-amide]: 11 nM; `O=C(Nc1ccc(N2CCOCC2)cc1)N1CCC(c2ncnc3cc(OCCCO)ccc23)CC1` [Example 77, 4-[7-(3-Hydroxy-propoxy)-quinazolin-4-yl]-piperidine-1-carboxylic acid (4-morpholin-4-yl-phenyl)-amide]: 98 nM; `COc1cc2ncnc(C3CCN(C(=O)Nc4ccc(C(C)C)cc4)CC3)c2cc1OC` [Example 4, 4-(6,7-Dimethoxy-quinazolin-4-yl)-piperidine-1-carboxylic acid (4-isopropyl-phenyl)-amide]: 56 nM. Next, `CC(C)Oc1ccc(NC(=O)N2CCC(c3ncnc4cc(NCCCN5CCN(C)CC5)ccc34)CC2)cc1` [Example 102, 4-{7-[3-(4-Methyl-piperazin-1-yl)-propylamino]-quinazolin-4-yl}-piperidine-1-carboxylic acid (4-isopropoxy-phenyl)-amide]: 5 nM.

`COc1cc2ncnc(C3CCN(C(=O)Nc4ccc(C5=CCNCC5)cc4)CC3)c2cc1OC` [Example 62, 4-(6,7-Dimethoxy-quinazolin-4-yl)-piperidine-1-carboxylic acid [4-(1,2,3,6-tetrahydro-pyridin-4-yl)-phenyl]-amide] showed an IC50 of 976 nM. To `COc1cc2ncnc(C3CCN(C(=O)Nc4ccc(C(C)O)cc4)CC3)c2cc1OC` (centres unmarked) [Example 55, 4-(6,7-Dimethoxy-quinazolin-4-yl)-piperidine-1-carboxylic acid [4-(1-hydroxy-ethyl)-phenyl]-amide] belongs 1000 nM; to `CN1CCCN(CCCOc2ccc3c(C4CCN(C(=O)Nc5ccc(N6CCOCC6)cc5)CC4)ncnc3c2)CC1` [Example 125, 4-{7-[3-(4-Methyl-[1,4]diazepan-1-yl)-propoxy]-quinazolin-4-yl}-piperidine-1-carboxylic acid (4-morpholin-4-yl-phenyl)-amide], 66 nM.

(Values after patent US20070004660A1, “Synergistic Modulation of Flt3 Kinase Using Alkylquinolines and Alkylquinazolines” (priority 2005, published 2007).)
